Assay results published in ChEMBL document CHEMBL1154097, “Novel 3,3'-diindolylmethane derivatives: synthesis and cytotoxicity, structural characterization in solid state” (Eur J Med Chem, 2009).
Activity calls are given as the source filed them. No cut-off for these calls is given here.

Columns and labels:
PC-3 = assay: Cytotoxicity against human PC3 cells; format: functional
Malme-3M = assay: Cytotoxicity against human MALME-3M cells at 10 uM; format: functional, cell-based
SK-MEL-2 = assay: Cytotoxicity against human SK-MEL-2 cells; format: functional
IGROV-1 = assay: Cytotoxicity against human IGROV1 cells; format: functional
UO-31 = assay: Cytotoxicity against human UO31 cells; format: functional

SMILES: Fc1cc(F)cc(C(c2c[nH]c3ccccc23)c2c[nH]c3ccccc23)c1
- Activity (PC-3): 67.07%
- Activity (Malme-3M): Active
- Activity (SK-MEL-2): 58.84%
- Activity (IGROV-1): -6.52%
- Activity (UO-31): 52.86%

SMILES: COc1ccc2[nH]cc(C(c3cc(F)cc(F)c3)c3c[nH]c4ccc(OC)cc34)c2c1
- Activity (PC-3): 50.16%
- Activity (Malme-3M): Active
- Activity (SK-MEL-2): 62.49%
- Activity (IGROV-1): -7.1%
- Activity (UO-31): 43.23%
